In paper PMC10049354, “Anti-Inflammatory Effects and Photo- and Neuro-Protective Properties of BIO203, a New Amide Conjugate of Norbixin, in Development for the Treatment of Age-Related Macular Degeneration (AMD)” (International Journal of Molecular Sciences, 2023):

What was measured:
VEGF = VEGF mRNA expression induced by A2E (quantitative RT-PCR); type: cell-based, pig; details: BIO203 20 mM (so in the source); A2E 20 μM; porcine RPE cells; p < 0.001
Description: RPE cells were obtained from pig eyes, as previously described. RPE cells were seeded on a 96-well plate at a density of 1.5 × 10^5 cells/cm^2 in DMEM 2% FCS. BIO201, BIO203, or its pure enantiomers were added in increasing concentrations to the culture medium 48 h before illumination. A2E was added to the medium at a final concentration of 30 μM, and 19 h later, blue-light illumination was performed for 50 min using a 96 blue-led device (Durand, St Clair de la Tour, France) emitting at 470 nm (1440 mcd, 8.6 mA). Just before illumination, the culture medium was replaced by a modified DMEM without any photosensitizer and with 2% FCS. Twenty-four hours after blue-light irradiation, all cell nuclei were stained with Hoechst 33342, and nuclei of dead cells with ethidium homodimer 2, fixed with paraformaldehyde (4% in PBS, 10 min) and 9 pictures per well were captured using a fluorescence microscope (Nikon TiE) equipped with a CoolSNAP HQ2 camera and driven by Metamorph Premier On-Line program. Quantification of live cells was performed using Metamorph Premier Off-Line and a homemade program by subtraction of dead cells from all cells. For cytokines mRNA analysis, RPE cells were seeded in 24-well plates and left untreated or treated with A2E or BIO203 alone or A2E plus BIO203. […]

NF-κB = NF-κB transactivation assay induced by A2E; type: cell-based, pig; details: compound 20 μM; A2E 20 μM; p < 0.05
Description: Transactivation assays were performed as previously described. Briefly, RPE cells were plated in DMEM 2% FCS at a density of 6 × 10^4 cells/cm^2. The next day transfections using the Cignal Reporter Assay Kits for PPAR, RXR, AP-1, and NF-κB were performed with Lipofectamine and Plus Reagent in serum-free medium. Three hours after the transfection, A2E and/or BIO203, both at 20 μM, were added to the culture medium for 24 h. Luciferase activity was measured using the Dual-Luciferase Reporter Assay System and with a luminometer (Infinite M1000 from Tecan, Mannedorf, Switzerland). At least 3 independent transfections were performed in triplicate for each condition.

IL-8 = test system: IL-8; parameters: method as in PMID 34544906; details: norbixin at 20 mM (so in the source); cited from earlier work
RXR = test system: RXR; parameters: method as in PMID 34544906; details: porcine RPE cells in vitro; cited from earlier work
IL-6 = test system: IL-6; parameters: method as in PMID 34544906; details: norbixin at 20 mM (so in the source); cited from earlier work

Row | Compound | change of VEGF mRNA expression induced by A2E (VEGF) [%] | change of NF-κB transactivation induced by A2E (NF-κB) [%] | effect on IL-8 mRNA expression (IL-8) | inhibition of RXR transactivation induced by A2E (RXR) | effect on IL-6 mRNA expression (IL-6)
1 | COC1CCCN(C(=O)/C=C/C(C)=C/C=C/C(C)=C/C=C/C=C(C)/C=C/C=C(C)\C=C\C(=O)O)C1 (centres unmarked) [BIO203] | −84.8 | −69.4 | – | – | –
2 | CC(=C/C=C/C(C)=C/C=C/C=C(C)/C=C/C=C(C)/C=C/C(=O)O)/C=C/C(=O)O [norbixin, 9′-cis-norbixin] | – | – | significantly reduced | significantly inhibited | significantly reduced
